This note sets out measurements from EP4775569A1, “3CL PROTEASE INHIBITOR FOR TREATING OR PREVENTING CORONAVIRUS INFECTIONS AND USE THEREOF” (The Global Health Drug Discovery Institute, priority 2023, dated 2025).

In one data set the target is SARS-CoV-2 3CLpro (Severe acute respiratory syndrome coronavirus 2, UniProt P0DTD1). The data set can be described thus: Enzyme Activity Test. The class given is biochemical.
A short description of data set [1]: Toxicity Testing in Uninfected Cells. It counts as cell-based. The note with it: human, Cell-Titer Glo cell viability. The method, then: Toxicity Testing in Uninfected Cells
The compound was transferred to a 1536-well plate (Corning No. 9006BC), and then Hela-ACE cells were added (cell density: 600 cells/5 microliter of medium MEM with 2% FBS). After the assay plate was incubated at 37°C in 5% CO2 for 48 hours, cell viability was tested. 2 µL of 50% Cell-Titer Glo (Promega No G7573) was diluted in water and added to a cell assay plate, and then a value on EnVision Plate Reader (Perkin Elmer) was read.

The next data set deals with SARS-CoV-2. Kind of data set: SARS-CoV-2/Hela-ACE Test. It counts as cell-based.
[2] abbreviates: uninfected Hela-ACE (HeLa ACE2) cells.
Where [3] appears, read: Severe acute respiratory syndrome coronavirus 2, Hela-ACE cells infected with SARS-CoV-2 (USA-WA1/2020), MOI 0.75-1, 48 hours, read-out: Hela ACE2-CoV-2 EC50.

Like-named read-outs stand apart in the source and are kept apart here. Where only a bound is given, the exact number is not on record here.

The IC50 is the point on the concentration scale where inhibition reaches its midpoint. A low value points to higher potency. In general, CC50 refers to the concentration at which the toxic effect on the cells reaches its halfway point. Higher therefore signals lower toxicity to the cells. The EC50 is the concentration at which the effect is half-maximal.

In the case of `Cc1ccc2cncc(N3C(=O)CCN(c4cc(Cl)cc(OCC(F)(F)F)c4)C3=O)c2c1` [Example 48], the IC50 on SARS-CoV-2 3CLpro was found to be 50 nM. In data set [1] (hela-ace2 cells, uninfected Hela-ACE cells), this compound displayed a CC50 at 48 h above 99000 nM. For the same compound, the EC50 with SARS-CoV-2 (Severe acute respiratory syndrome coronavirus 2, HeLa, 48 h, read-out: Hela ACE2-CoV-2 EC50 (µM)) was 0.052 µM.

Turning to `O=C1N(c2cc(Cl)cc(OCC(F)(F)F)c2)CC2(CC2)C(=O)N1c1cncc2ccccc12` [Example 33], in data set [1] (setting [2]), the CC50 at 48 h is above 99000 nM. Moreover, in the data set on SARS-CoV-2 (setting [3]), the EC50 came to 0.087 µM.

Regarding `Cc1cncc(N2C(=O)CCN(c3cc(Cl)cc(OCC(F)(F)F)c3)C2=O)c1C` [Example 47], the IC50 against SARS-CoV-2 3CLpro stood at 55 nM.

In turn, `O=C1CCN(c2cc(Cl)cc(N3CC4(COC4)C3)c2)C(=O)N1c1cncc2ccccc12` [Example 23] came in with a CC50 at 48 h in data set [1] (setting [2]) above 99000 nM. The 50% effective concentration (EC50) in the data set with SARS-CoV-2 (setting [3]) worked out at 0.035 µM.

In data set [1] (setting [2]), `O=C1CCN(c2cc(Cl)cc(OCC3CC3)c2)C(=O)N1c1cncc2ccccc12` [Example 3] registered a CC50 at 48 h of 73400 nM. For the same compound, the EC50 in the data set on SARS-CoV-2 (setting [3]) amounted to 0.064 µM.

Take `O=C1CCN(c2cc(Cl)cc(OCC3CC(F)(F)C3)c2)C(=O)N1c1cncc2ccccc12` [Example 5]: the CC50 at 48 h in data set [1] (setting [2]) is above 99000 nM. Besides, the EC50 in the data set with SARS-CoV-2 (setting [3]) came out at 0.074 µM.

`O=C1CCN(c2cc(Cl)cc(OCC(F)(F)F)c2)C(=O)N1c1cncc2ccccc12` [Example 2] returned a CC50 at 48 h in data set [1] (setting [2]) above 99000 nM. In the data set with SARS-CoV-2 (setting [3]), the EC50 came to 0.03 µM.

For `O=C1CCN(c2cc(Cl)cc(OCC(F)(F)F)c2)C(=O)N1c1cncc2ccc(F)cc12` [Example 49], half-maximal inhibition against SARS-CoV-2 3CLpro (IC50) required 43 nM.

For the compound `O=C1CCN(c2cc(F)c(Cl)c(OCC(F)(F)F)c2)C(=O)N1c1cncc2ccccc12` [Example 55], it took 74000 nM to reach half-maximal cytotoxicity in data set [1] (setting [2]) (CC50 at 48 h). In addition, the EC50 in the data set on SARS-CoV-2 (setting [3]) stood at 0.072 µM.
